The target of assay [1] is T1, CDK2/Cyclin E1 (Homo sapiens, UniProt P24941).
T1 construct: purchased 14-475
Briefly: Caliper Assay (LabChip EZ Reader mobility shift assay), inhibition of CDK2/Cyclin E1 activity. It is filed as biochemical. To be noted: 2.5 nM CDK2/Cyclin E1(14-475), 100 μM ATP, 30 min preincubation; read-out: Caliper Assay (CDK2/CCNE1): IC50. An outline of the steps:
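Compounds were preincubated 30 min with CDK2/Cyclin E1(14-475), then run for 100 min with 2.5 nM enzyme, 100 μM ATP and 1.5 μM 5-FAM-QSPKKG peptide in HEPES pH 7.5 (final). Reactions were EDTA-stopped and substrate-to-product conversion read by mobility shift. IC50 came from a four-parameter fit.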

The subject of the next assay is Kuramochi cells. Briefly: IncuCyte Kuramochi Assay (cell proliferation). The format is cell-based. To be noted: Kuramochi cells labeled with mApple-H2B, cell count, read-out: IncuCyte - Kuramochi RB-WT: IC50. An outline of the steps:
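GI50 came from dose-response fits of cell-count fold change between 0 and 72 h, normalized to DMSO controls. Counts were fluorescent nuclei from live-cell images over a 10-point, ½ log series starting at 20 μM.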

Assay [2] deals with T1, CDK2/Cyclin E1. Briefly: ADPGLO (CDK2/E1-37 C), ADP-Glo Luminescent Kinase Assay. The format is biochemical. To be noted: 0.18 nM CDK2/Cyclin E1, 100 μM ATP, Histone H1, 37° C. An outline of the steps: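 Human CDK2/Cyclin E1 preincubated with inhibitor 60 min at 37 °C, then reacted 90 min at 37 °C with final 0.18 nM enzyme, 100 μM ATP, 1.5 μM Histone H1 in HEPES pH 7.5 buffer. ADP formed read by ADP-Glo luminescence; IC50 from four-parameter fit.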

Assay [3] has as its system mouse models of polycystic kidney disease. The settings on record: Bukanov et al., Nature 2006; cited from earlier work.

Consider 24 molecules from US20260151375A1, “CDK2 INHIBITORS AND METHODS OF USING THE SAME” (Cedilla Therapeutics, Inc., priority 2022, published 2026).

Where a name gives a salt, the structure may show the parent alone. Read-outs that look alike come from different tables or passages of the source. A value given as a limit tells only on which side of the number the result lay.

Consider `CC(c1nc(C2CN(C(=O)c3cncs3)CC23CN(C(=O)[C@H]2CC2(C)C)C3)no1)n1ccc(C2CCCC2)n1` (single isomer, unassigned) [I-36 2nd], for which the results for the IC50 on CDK2/Cyclin E1 [1], in the assay on Kuramochi cells (72 hours) and against CDK2/Cyclin E1 [2] were 1 to 10 µM, over 10 µM and over 10 µM, respectively.
As to `CC(c1nc(C2CN(C(=O)c3cncs3)CC23CN(C(=O)[C@H]2CC2(C)C)C3)no1)n1ccc(C2CCCC2)n1` (single isomer, unassigned) [I-36 3rd], the IC50 at CDK2/Cyclin E1 [1] is 0.01 to 0.1 µM; with Kuramochi cells (72 hours) it was over 10 µM; at CDK2/Cyclin E1 [2], at most 0.5 µM.
As for `CC1(C)C[C@@H]1C(=O)N1CC2(CN(C(=O)c3cnccn3)CC2c2nnc(C(F)(F)c3ccc(Cl)c(Cl)c3)o2)C1` (single isomer, unassigned) [I-45 2nd], the IC50 on CDK2/Cyclin E1 [1] was 0.1 to 1 µM; with Kuramochi cells (72 hours) it was over 10 µM; against CDK2/Cyclin E1 [2] it was over 10 µM.
On to `CC1(C)C[C@@H]1C(=O)N1CC2(CN(C(=O)c3cnn(Cc4ccccc4)c3)C[C@H]2c2nnc(Cc3ccc(Cl)c(Cl)c3)o2)C1` [I-15, (1-benzyl-1H-pyrazol-4-yl)((S)-8-(5-(3,4-dichlorobenzyl)-1,3,4-oxadiazol-2-yl)-2-((S)-2,2-dimethylcyclopropane-1-carbonyl)-2,6-diazaspiro[3.4]octan-6-yl)methanone], for which the IC50 at CDK2/Cyclin E1 [1] was in the range of 0.01 to 0.1 µM; with Kuramochi cells (72 h), 5 to 10 µM; against CDK2/Cyclin E1 [2], 0.5 to 5 µM.
On the same counts, the results for `CC1(C)C[C@@H]1C(=O)N1CC2(CN(C(=O)c3cncs3)CC2c2nnc(C(F)(F)c3ccc(Cl)c(Cl)c3)o2)C1` (stereo partly shown) [I-32] are 0.1 to 1 µM, over 10 µM and 0.5 to 5 µM.
The corresponding values for `COc1ccc(COc2cncc(C(=O)N3CC(c4nnc(C(F)(F)c5ccc(Cl)c(Cl)c5)o4)C4(C3)CN(C(=O)[C@H]3CC3(F)F)C4)n2)cc1` (stereo partly shown) [I-125] are over 100 µM, over 10 µM and over 100 µM.
On the same counts, the results for `CC(c1nc(C2CN(C(=O)c3cnn(Cc4ccc(C(=O)O)nc4)c3)CC23CN(C(=O)[C@H]2CC2(C)C)C3)no1)n1ccc(C2CCCC2)n1` (stereo partly shown) [I-126] are 0.1 to 1 µM, over 10 µM and over 10 µM.
Take `CC(c1nc(C2CN(C(=O)c3cnn(Cc4ccc(C(=O)O)cc4)c3)CC23CN(C(=O)[C@H]2CC2(C)C)C3)no1)n1ccc(C2CCCC2)n1` (stereo partly shown) [I-127]: the IC50 is 0.1 to 1 µM at CDK2/Cyclin E1 [1], over 10 µM in the assay on Kuramochi cells (72 h) and 5 to 10 µM on CDK2/Cyclin E1 [2].
For `CC(c1nc(C2CN(C(=O)c3nccnc3O)CC23CN(C(=O)[C@H]2CC2(F)F)C3)no1)n1ccc(C2CCCC2)n1` (stereo partly shown) [I-129], the figures for the IC50 at CDK2/Cyclin E1 [1], with Kuramochi cells (72 h) and against CDK2/Cyclin E1 [2] were over 100 µM, over 10 µM and over 10 µM, respectively.
Take `CC(c1nc(C2CN(C(=O)c3cnn(Cc4cc(F)c(C(=O)O)c(F)c4)c3)CC23CN(C(=O)[C@H]2CC2(C)C)C3)no1)n1ccc(C2CCCC2)n1` (stereo partly drawn) [I-130, 4-((4-(8-(5-(1-(3-cyclopentyl-1H-pyrazol-1-yl)ethyl)-1,2,4-oxadiazol-3-yl)-2-((S)-2,2-dimethylcyclopropane-1-carbonyl)-2,6-diazaspiro[3.4]octane-6-carbonyl)-1H-pyrazol-1-yl)methyl)-2,6-difluorobenzoic acid]: the IC50 at CDK2/Cyclin E1 [1] is 0.01 to 0.1 µM; with Kuramochi cells (72 h), over 10 µM; at CDK2/Cyclin E1 [2], 0.5 to 5 µM.
On the same counts, the results for `CC(c1nc(C2CN(C(=O)c3cnn(Cc4cccc(C(=O)O)c4)c3)CC23CN(C(=O)[C@H]2CC2(C)C)C3)no1)n1ccc(C2CCCC2)n1` (stereo partly shown) [I-131] are at most 0.01 µM, over 10 µM and 0.5 to 5 µM.
The corresponding values for `O=C(c1cnc(O)cn1)N1CC(c2nnc(C(F)(F)c3ccc(C4CCOCC4)cc3)o2)C2(C1)CN(C(=O)[C@H]1CC1(F)F)C2` (stereo partly drawn) [I-132, (8-(5-(difluoro(4-(tetrahydro-2H-pyran-4-yl)phenyl)methyl)-1,3,4-oxadiazol-2-yl)-2-((R)-2,2-difluorocyclopropane-1-carbonyl)-2,6-diazaspiro[3.4]octan-6-yl)(5-hydroxypyrazin-2-yl)methanone] are 1 to 10 µM, over 10 µM and over 10 µM.
On the same counts, the results for `CC(c1nc(C2CN(C(=O)c3cnn(Cc4ccc(C#N)cc4)c3)CC23CN(C(=O)[C@H]2CC2(C)C)C3)no1)n1ccc(C2CCCC2)n1` (stereo partly drawn) [I-133, 4-((4-(8-(5-(1-(3-cyclopentyl-1H-pyrazol-1-yl)ethyl)-1,2,4-oxadiazol-3-yl)-2-((S)-2,2-dimethylcyclopropane-1-carbonyl)-2,6-diazaspiro[3.4]octane-6-carbonyl)-1H-pyrazol-1-yl)methyl)benzonitrile] are at most 0.01 µM, 0.5 to 5 µM and at most 0.5 µM.
In the case of `CC(c1nc(C2CN(C(=O)c3cnc(O)cn3)CC23CN(C(=O)[C@H]2CC2(F)F)C3)no1)n1ccc(C2CCCC2)n1` (stereo partly drawn) [I-134, (8-(5-(1-(3-cyclopentyl-1H-pyrazol-1-yl)ethyl)-1,2,4-oxadiazol-3-yl)-2-((R)-2,2-difluorocyclopropane-1-carbonyl)-2,6-diazaspiro[3.4]octan-6-yl)(5-hydroxypyrazin-2-yl)methanone], the IC50 on CDK2/Cyclin E1 [1] is 0.1 to 1 µM; with Kuramochi cells (72 h), over 10 µM; against CDK2/Cyclin E1 [2], 0.5 to 5 µM.
Take `O=C(c1nccnc1O)N1CC(c2nnc(C(F)(F)c3ccc(Cl)c(Cl)c3)o2)C2(CN(CC3CCCO3)C2)C1` (stereo not shown) [I-135]: the figures for the IC50 on CDK2/Cyclin E1 [1], in the assay on Kuramochi cells (72 h) and at CDK2/Cyclin E1 [2] were over 100 µM, over 10 µM and over 100 µM, respectively.
`O=C(c1[nH]ncc1C(F)(F)F)N1CC(c2nnc(C(F)(F)c3ccc(Cl)c(Cl)c3)o2)C2(CN(CC3CCCO3)C2)C1` (stereo not shown) [I-136]: the IC50 at CDK2/Cyclin E1 [1] was over 100 µM; in the assay with Kuramochi cells (72 h), over 10 µM; against CDK2/Cyclin E1 [2], over 100 µM.
In the case of `COc1cn[nH]c1C(=O)N1CC(c2nnc(C(F)(F)c3ccc(Cl)c(Cl)c3)o2)C2(C1)CN(C(=O)[C@H]1CC1(F)F)C2` (stereo partly drawn) [I-137, (8-(5-((3,4-dichlorophenyl)difluoromethyl)-1,3,4-oxadiazol-2-yl)-2-((R)-2,2-difluorocyclopropane-1-carbonyl)-2,6-diazaspiro[3.4]octan-6-yl)(4-methoxy-1H-pyrazol-5-yl)methanone], the values for the IC50 at CDK2/Cyclin E1 [1], in the assay on Kuramochi cells (72 h) and against CDK2/Cyclin E1 [2] were 1 to 10 µM, over 10 µM and over 10 µM, respectively.
`COc1cc(C(=O)N2CC(c3nnc(C(F)(F)c4ccc(Cl)c(Cl)c4)o3)C3(C2)CN(C(=O)[C@H]2CC2(F)F)C3)[nH]n1` (stereo partly shown) [I-138]: the figures for the IC50 on CDK2/Cyclin E1 [1], with Kuramochi cells (72 h) and against CDK2/Cyclin E1 [2] were over 10 µM, over 10 µM and over 100 µM, respectively.
Consider `O=C(c1ccn[nH]1)N1CC(c2nnc(C(F)(F)c3ccc(Cl)c(Cl)c3)o2)C2(CN(CC3CCCO3)C2)C1` (stereo not shown) [I-139, (8-(5-((3,4-dichlorophenyl)difluoromethyl)-1,3,4-oxadiazol-2-yl)-2-((tetrahydrofuran-2-yl)methyl)-2,6-diazaspiro[3.4]octan-6-yl)(1H-pyrazol-5-yl)methanone formate], for which the IC50 at CDK2/Cyclin E1 [1] was over 100 µM; in the assay on Kuramochi cells (72 h), over 10 µM; against CDK2/Cyclin E1 [2], over 100 µM.
For the molecule `O=C(c1cnc(O)cn1)N1CC(c2nnc(C(F)(F)c3ccc(Cl)c(Cl)c3)o2)C2(CN(CC3CCCO3)C2)C1` (stereo not shown) [I-140], the IC50 at CDK2/Cyclin E1 [1], in the assay on Kuramochi cells (72 h) and against CDK2/Cyclin E1 [2] was over 10 µM throughout.
As for `O=C(c1cn[nH]c1C(F)(F)F)N1CC(c2nnc(C(F)(F)c3ccc(Cl)c(Cl)c3)o2)C2(CN(CC3CCCO3)C2)C1` (stereo not shown) [I-141], the results for the IC50 on CDK2/Cyclin E1 [1], in the assay on Kuramochi cells (72 h) and at CDK2/Cyclin E1 [2] were over 100 µM, over 10 µM and over 10 µM, respectively.
In the case of `O=C(c1cc(C(F)(F)F)n[nH]1)N1CC(c2nnc(C(F)(F)c3ccc(Cl)c(Cl)c3)o2)C2(CN(CC3CCCO3)C2)C1` (stereo not shown) [I-142], the IC50 is over 100 µM at CDK2/Cyclin E1 [1], over 10 µM with Kuramochi cells (72 h) and over 10 µM against CDK2/Cyclin E1 [2].
On to `O=C(c1cn[nH]c1)N1CC(c2nnc(C(F)(F)c3ccc(Cl)c(Cl)c3)o2)C2(CN(CC3CCCO3)C2)C1` (stereo not shown) [I-143], for which the IC50 on CDK2/Cyclin E1 [1] was over 100 µM; in the assay with Kuramochi cells (72 h), over 10 µM; on CDK2/Cyclin E1 [2], over 10 µM.
Turning to `CC[C@H](CO)Nc1nc(NCc2ccccc2)c2ncn(C(C)C)c2n1` [roscovitine], the “arrest of cystic kidney disease” value in assay [3] is reported as “effective arrest of cystic kidney disease”.
